Experimental findings from US5854211A, “Compounds with growth hormone releasing properties” (Novo Nordisk A/S, priority 1993, dated 1998) are described below.

Residues, ends and D or L forms follow the SMILES beside them.

This assay deals with rat pituitary cells. Description: In-vitro assay of GH secretion from cultured rat pituitary cells (rGH measured by SPA). Conditions: mixed rat anterior pituitary cell culture, 15 min stimulation at 37° C. Format: cell-based. How it is done: An in-vitro assay using rat pituitary cells was established to study the effect of different GH secretagogues. The mixed pituitary cell culture was isolated from the anterior pituitary of male rats and cultured for 3 days. After washing the cells were stimulated for 15 min and the amount of GH secreted measured in the culture supernatant. The isolation of rat pituitary cells was a modification of Sartor, O. et al., Endocrinology 116, 1985, pp. 952-957. Pituitaries were discharged from 250 g male Sprague-Dawley rats after decapitation. The neurointermediate lobes were removed and the remainder was placed in Gey's medium supplemented with 0.25% glucose, 2× non essential amino acid and 1% BSA (isolation buffer). The glands were cut into small pieces and transferred to a flask containing 3 ml isolation buffer +11.5 mg trypsin and 1000 μg DNase and incubated for 35 min at 37° C., 95% O2 and 70 rotations per min. The fragments were washed 3 times by sedimentation in isolation buffer and aspirated into single cells by using a pasteur pipet. After dispersion the cells were filtered though a nylon filter (160 μm) to remove undigested tissue. The cells were washed 3 times with isolation buffer supplemented with trypsin inhibitor (0.75 mg/ml) and resuspended in culture medium (DMEM supplemented with 25 mM HEPES, 4mM Glutamine, 0.75% sodium bicarbonate, 2.5% FCS, 3% horse serum, 10% rat serum, 1 nM T3 and 40 μg/L dexamethasone) to a density of 2×10^5 cells/ml. The cells were seeded into microtiter plates, 200 μl/well and cultured for 3 days at 37° C. and 8% CO2. Following the culture period the cells were washed twice with stimulation buffer (HBSS supplemented with 1% BSA, 0.25% D-glucose and 25 mM HEPES) and preincubated for 1 hour. […] The buffer was collected and analyzed for rat growth hormone (rGH) content in a scintillation proximity assay (SPA) as follows (SPA, essentially as described in U.S. Pat. […] USA 82, 1985, pp. 8672-8676). The rGH assay was performed in OptiPlates (96-well plates) suitable for direct counting in a […] TopCount (β-scintillation counter). Assay protocol: 40 μl buffer 10 μl sample (incubated stimulation buffer) 50 μl ^125 I-rGH 50 μl rabbit anti-rGH 50 μl SPA reagent (anti-rabbit antibody bound to fluomicrospheres) The plates are sealed and placed on a plate shaker for 30 minutes followed by 10 hours of incubation, settling at 10°-15° C. and counting. In the SPA, rGH bound to an anti-GH rabbit antibody (primary antibody) is reacted with a second antibody bound to fluomicrospheres (SPA Type II RIA available from Amersham). Any radiolabelled rGH which is bound to the primary antibody will be immobilized on the fluomicrospheres which will then produce light. Measurement in a β-scintillation counter makes it possible to calculate the amount of radiolabelled rGH. The amount of radiolabelled rGH bound to the fluomicrospheres decreases with an increasing content of rGH in the sample.

What is called EC50 is the concentration giving half of the maximal effect. Read a high EC50 as a less potent agent. For the compound “H-His-D-Trp-Ala-Trp-D-Phe.psi.(CH2 NH)Lys-NH2 [Example 2]”, the response was half-maximal at 0.5 nM (EC50) and the “Emax (% of GHRP-6)” value is recorded as 100 % of GHRP-6.
In the same order, the values of `C[C@@H](N)C(=O)N[C@H](Cc1ccc2ccccc2c1)C(=O)NCC(=O)N[C@@H](Cc1c[nH]c2ccccc12)C(=O)N[C@H](Cc1ccccc1)C(=O)N[C@@H](CCCCN)C(N)=O` [H-DAla-D2Nal--Gly--Trp-DPhe--Lys--NH2] (HELM PEPTIDE1{[dA].[O=C([C@@H](Cc1ccc2ccccc2c1)N[*:1])[*:2]].G.W.[dF].K.[am]}$$$$V2.0) are 0.8 nM and 75 % of GHRP-6.
The matching figures for `C[C@H](NC(=O)[C@@H](Cc1ccc2ccccc2c1)NC(=O)[C@@H](C)N)C(=O)N[C@@H](Cc1c[nH]c2ccccc12)C(=O)N[C@H](Cc1ccccc1)C(=O)N[C@@H](CCCCN)C(N)=O` [H-D-Ala-D-2Nal--Ala--Trp-D-Phe--Lys--NH2] (HELM PEPTIDE1{[dA].[O=C([C@@H](Cc1ccc2ccccc2c1)N[*:1])[*:2]].A.W.[dF].K.[am]}$$$$V2.0): 1.8 nM and 85 % of GHRP-6.
The matching figures for “(2S)-((3-(4-Imidazolyl)propionyl)-D-Phe--Ala--Trp-D-Phe.psi.(CH2 NH)-6-aminohexanol”: 5 nM and 80 % of GHRP-6.
For `C[C@H](NC(=O)[C@@H](Cc1c[nH]c2ccccc12)NC(=O)[C@@H](N)Cc1c[nH]cn1)C(=O)N[C@@H](Cc1c[nH]c2ccccc12)C(=O)N[C@H](Cc1ccccc1)C(=O)N[C@@H](CCCCN)C(N)=O` [H--His-D-Trp--Ala--Trp-D-Phe--Lys--NH2] (HELM PEPTIDE1{H.[dW].A.W.[dF].K.[am]}$$$$V2.0), the EC50 was 2 nM and the “Emax (% of GHRP-6)” value is recorded as 100 % of GHRP-6.
